Experimental findings from US20050215634A1 (priority 2003, published 2005) are described below.

In one series the test system is HVECs. The format is cell-based, human.
Series [1] deals with rabbit RBCs. As to the kind of experiment: Streptolysin O-induced hemolysis on RBC agar plates. Type of series: cell-based. Particulars: GML 10 μg/ml in agar, Group A Streptococci stabbed into agar. Here is the method:
GML (10 μg/ml) was incorporated into culture plates containing solid agar and rabbit RBCs suspended in the agar. The effect of GML on streptolysin O-induced hemolysis was tested by stabbing the Group A Streptococci into the agar so as to permit the anaerobic growth of the bacteria beneath the surface of the agar and thereby allow streptolysin O to function.

The subject of series [2] is rabbit RBCs. The series is described as follows: Streptolysin S-induced hemolysis on RBC agar plates. The format is cell-based. The following applies: rabbit blood agar plates containing GML, surface culture of Group A Streptococci. The procedure:
The effect of GML on streptolysin S-induced hemolysis was assayed by direct culturing of Streptococci on the surface of the RBC-containing agar plates.

For another series, the system named is HIV-1. Type of series: cell-based.
Where [3] appears, read: GML 20 μg/ml + SPEA 100 μg/ml, 6 hours.
[4] abbreviates: GML 20 μg/ml + TSST-1 100 μg/ml, 6 hours.

Where two headings read alike, the source gives them in different places.

As to Ovalbumin [reference compound], in the series with HVECs, the “IL-8 (pg/ml ± SE)” value amounted to 36 ± 1.5 pg/mL and the “MIP-3α (pg/ml ± SE)” value was 12 ± 1.8 pg/mL.

Regarding `CCCCCCCCCCCC(=O)OCC(O)CO` (stereo not shown) [GML, glycerol monolaurate], the “Streptolysin O-induced hemolysis of RBCs” value in the series on rabbit RBCs [1] is reported as “completely prevented hemolysis”. The “Streptolysin S-induced hemolysis” value in the series on rabbit RBCs [2] is given as “completely inhibited”. For the same compound, the “IL-8 (pg/ml ± SE)” value with HVECs, with HVECs (setting [3]) and in the series with HVECs (setting [4]) was “None Detected” in each case. Further, the “MIP-3α (pg/ml ± SE)” value in the series on HVECs, with HVECs (setting [3]) and in the series with HVECs (setting [4]) was “None Detected” in each case. In addition, the “Cells expressing HIV-1 p24” value in the series with HIV-1 was “rare and no cells expressing p24”. The Cell viability entry in the series on human PBMC is listed as “preserved”. Also, the “Total number of cells versus control sample without GML” value in the series with human PBMC is listed as “significantly less”.
